Assay results published in patent US9133148B2, “Carbamate compounds and of making and using same” (Abide Therapeutics, Inc., priority 2012, dated 2015).

What was measured:
Assay type in all cases: biochemical
Conditions in all cases: mouse brain membrane proteome
MAGL = MAGL (Mus musculus (Mouse), UniProt O35678); assay: In vitro competitive activity-based protein profiling (FP-Rh), mouse MAGL
Protocol: (§1) In Vitro Competitive Activity-Based Protein Profiling.
(§2) Proteomes (mouse brain membrane fraction or cell lysates) ([…], 1.0 mg/mL total protein concentration) were preincubated with varying concentrations of inhibitors at 37° C. After 30 min, FP-Rh (1.0 μL, 50 μM in DMSO) was added and the mixture was incubated for another 30 min at 37° C. Reactions were quenched with SDS loading buffer (50 μL—4×) and run on SDS-PAGE.

FAAH = FAAH (Mus musculus (Mouse), UniProt O08914); assay: In vitro competitive activity-based protein profiling (FP-Rh), mouse FAAH
FAAH, sequence (O08914 whole entry): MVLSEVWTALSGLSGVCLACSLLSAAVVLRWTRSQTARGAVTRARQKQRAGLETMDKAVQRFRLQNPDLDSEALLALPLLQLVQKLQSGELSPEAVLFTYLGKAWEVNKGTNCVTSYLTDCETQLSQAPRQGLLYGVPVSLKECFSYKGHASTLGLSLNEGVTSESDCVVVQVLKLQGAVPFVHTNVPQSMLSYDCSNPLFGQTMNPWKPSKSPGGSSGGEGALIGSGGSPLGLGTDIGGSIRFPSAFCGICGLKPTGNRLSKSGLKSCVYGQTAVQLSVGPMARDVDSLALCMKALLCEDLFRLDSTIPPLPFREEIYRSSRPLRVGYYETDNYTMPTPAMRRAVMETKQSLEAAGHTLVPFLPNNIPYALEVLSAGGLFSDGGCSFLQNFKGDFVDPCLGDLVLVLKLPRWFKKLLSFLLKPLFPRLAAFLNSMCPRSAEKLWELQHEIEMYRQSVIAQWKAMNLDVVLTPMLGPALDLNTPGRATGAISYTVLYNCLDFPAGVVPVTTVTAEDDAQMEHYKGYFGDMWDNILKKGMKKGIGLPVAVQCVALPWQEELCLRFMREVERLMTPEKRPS
Protocol: as §1, §2

ABHD6 = ABHD6 (Mus musculus (Mouse), UniProt Q8R2Y0); assay: In vitro competitive activity-based protein profiling (FP-Rh), mouse ABHD6
ABHD6, sequence (Q8R2Y0 whole entry): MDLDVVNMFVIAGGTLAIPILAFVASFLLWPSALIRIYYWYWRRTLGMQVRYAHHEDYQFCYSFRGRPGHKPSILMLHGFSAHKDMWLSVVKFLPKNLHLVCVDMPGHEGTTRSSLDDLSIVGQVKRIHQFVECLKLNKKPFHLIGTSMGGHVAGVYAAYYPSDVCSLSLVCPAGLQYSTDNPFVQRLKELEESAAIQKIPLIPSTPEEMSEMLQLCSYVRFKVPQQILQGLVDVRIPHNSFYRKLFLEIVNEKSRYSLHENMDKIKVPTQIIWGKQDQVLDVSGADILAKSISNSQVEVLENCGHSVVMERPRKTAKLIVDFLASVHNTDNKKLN
Protocol: as §1, §2

MAGL, sequence (O35678 whole entry): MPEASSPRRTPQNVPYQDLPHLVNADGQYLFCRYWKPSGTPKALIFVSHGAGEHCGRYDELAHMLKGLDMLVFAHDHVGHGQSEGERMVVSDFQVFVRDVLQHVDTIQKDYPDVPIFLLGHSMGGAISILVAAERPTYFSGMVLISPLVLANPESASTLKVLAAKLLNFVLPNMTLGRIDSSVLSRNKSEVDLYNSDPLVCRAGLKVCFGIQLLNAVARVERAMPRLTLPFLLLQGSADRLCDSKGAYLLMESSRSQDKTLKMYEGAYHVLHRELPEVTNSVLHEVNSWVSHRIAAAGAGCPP

Row | SMILES | IC50 (MAGL; competitive ABPP (Table 7)) [nM] | IC50 (FAAH; competitive ABPP (Table 7)) [nM] | IC50 (ABHD6; competitive ABPP (Table 7)) [nM] | IC50 (MAGL; competitive ABPP) [nM] | IC50 (FAAH; competitive ABPP) [nM] | IC50 (ABHD6; competitive ABPP) [nM]
1 | O=C(OC(C(F)(F)F)C(F)(F)F)N1CCN(Cc2ccc(N3CCOCC3)cc2Cl)CC1 [Example 9e, 1,1,1,3,3,3-hexafluoropropan-2-yl 4-(2-chloro-4-morpholinobenzyl)piperazine-1-carboxylate] | 100 to 1000 | > 5000 | 100 to 1000 |  |  | 
2 | O=C(OC(C(F)(F)F)C(F)(F)F)N1CCN(Cc2cc(Cl)ccc2N2CCOCC2)CC1 [Example 9ag, 1,1,1,3,3,3-hexafluoropropan-2-yl 4-[[5-chloro-2-(morpholin-4-yl)phenyl]methyl]piperazine-1-carboxylate] |  | > 10000 | > 1000 |  |  | 
3 | O=C(OC(C(F)(F)F)C(F)(F)F)N1CCN(Cc2ccc(N3CCCC3)c(F)c2)CC1 [Example 9aa, 1,1,1,3,3,3-hexafluoropropan-2-yl 4-(3-fluoro-4-(pyrrolidin-1-yl)benzyl)piperazine-1-carboxylate] | 100 to 1000 | > 10000 | 100 to 1000 |  |  | 
4 | CC(C)c1cc(N2CCCC2)ccc1CN1CCN(C(=O)OC(C(F)(F)F)C(F)(F)F)CC1 [Example 9au, 1,1,1,3,3,3-hexafluoropropan-2-yl 4-(2-isopropyl-4-(pyrrolidin-1-yl)benzyl)piperazine-1-carboxylate] | > 1000 | > 10000 | > 1000 |  |  | 
5 | COc1ccc(CN2CCN(C(=O)OC(C(F)(F)F)C(F)(F)F)CC2)cc1 [Example 9v, 1,1,1,3,3,3-hexafluoropropan-2-yl 4-(4-methoxybenzyl)piperazine-1-carboxylate] | < 100 | > 6250 | 100 to 1000 |  |  | 
6 | O=C(OC(C(F)(F)F)C(F)(F)F)N1CCN(Cc2ccc(Cl)cc2-n2cc(Cl)cn2)CC1 [Example 9ai, 1,1,1,3,3,3-hexafluoropropan-2-yl 4-(4-chloro-2-(4-chloro-1H-pyrazol-1-yl)benzyl)piperazine-1-carboxylate] | < 100 | > 10000 | 100 to 1000 |  |  | 
7 | CC(=O)N[C@H]1CCN(c2cc(Cl)ccc2CN2CCN(C(=O)OC(C(F)(F)F)C(F)(F)F)CC2)C1 [Example 9bb, (S)-1,1,1,3,3,3-hexafluoropropan-2-yl 4-(2-(3-acetamidopyrrolidin-1-yl)-4-chlorobenzyl)piperazine-1-carboxylate] | < 100 | > 10000 | > 1000 |  |  | 
8 | O=C(OC(C(F)(F)F)C(F)(F)F)N1CCN(Cc2ccc(Br)cc2N2CCCCC2)CC1 [Example 9q, 1,1,1,3,3,3-hexafluoropropan-2-yl 4-(4-bromo-2-(piperidin-1-yl)benzyl)piperazine-1-carboxylate] | 100 to 1000 |  |  |  |  | 
9 | O=C(OC(C(F)(F)F)C(F)(F)F)N1CCN(Cc2ccc(N3CCOCC3)cc2F)CC1 [Example 9a, 1,1,1,3,3,3-hexafluoropropan-2-yl 4-(2-fluoro-4-morpholinobenzyl)piperazine-1-carboxylate] | 100 to 1000 | > 10000 | 100 to 1000 |  |  | 
10 | COC(=O)C(OC(=O)N(C)CCc1ccccc1)C(F)(F)F (stereo not drawn) [Example 7k, Methyl 3,3,3-trifluoro-2-((methyl(phenethyl)carbamoyl)oxy)propanoate] |  |  |  | > 1000 | > 10000 | > 1000
11 | O=C(OC(C(F)(F)F)C(F)(F)F)N1CCN(Cc2ccc(N3CCCC3)cc2)CC1 [Example 9g, 1,1,1,3,3,3-hexafluoropropan-2-yl 4-(4-(pyrrolidin-1-yl)benzyl)piperazine-1-carboxylate] | 100 to 1000 | > 10000 | > 1000 |  |  | 
12 | O=C(OC(C(F)(F)F)C(F)(F)F)N1CCN(Cc2cccc(Cl)c2C(=O)N2CCCC2)CC1 [Example 9bg, 1,1,1,3,3,3-hexafluoropropan-2-yl 4-(3-chloro-2-(pyrrolidine-1-carbonyl)benzyl)piperazine-1-carboxylate] | 100 to 1000 | > 10000 | > 1000 |  |  | 
13 | CC(=O)N[C@@H]1CCN(c2cc(Cl)ccc2CN2CCN(C(=O)OC(C(F)(F)F)C(F)(F)F)CC2)C1 [Example 9ba, (R)-1,1,1,3,3,3-hexafluoropropan-2-yl 4-(2-(3-acetamidopyrrolidin-1-yl)-4-chlorobenzyl)piperazine-1-carboxylate] | < 100 | > 10000 | > 1000 |  |  | 
14 | O=C(Oc1ccc([N+](=O)[O-])cc1)N1CCC(C(O)(c2ccc3c(c2)OCO3)c2ccc3c(c2)OCO3)CC1 [A, 4-nitrophenyl 4-(dibenzo[d][1,3]dioxol-5-yl(hydroxy)methyl)piperidine-1-carboxylate, reference compound] |  |  |  |  | 4700 | 100 to 1000
15 | O=C(OC(C(F)(F)F)C(F)(F)F)N1CCN(Cc2ccc(N3CCCC3)cc2OC(F)(F)F)CC1 [Example 9ap, 1,1,1,3,3,3-hexafluoropropan-2-yl 4-(4-(pyrrolidin-1-yl)-2-(trifluoromethoxy)benzyl)piperazine-1-carboxylate] | 100 to 1000 | > 10000 | > 1000 |  |  | 
16 | CN(Cc1cccc(-c2ccncc2)c1)C(=O)OC(C(F)(F)F)C(F)(F)F [Example 3f, 1,1,1,3,3,3-hexafluoropropan-2-yl methyl(3-(pyridin-4-yl)benzyl)-carbamate] |  |  |  |  | > 10000 | 100 to 1000
17 | O=C(OC(C(F)(F)F)C(F)(F)F)N1CCN(Cc2ccc(N3CCOCC3)cc2)CC1 [Example 9f, 1,1,1,3,3,3-hexafluoropropan-2-yl 4-(4-morpholinobenzyl)piperazine-1-carboxylate] | 100 to 1000 | > 10000 | 100 to 1000 |  |  | 
18 | O=C(OC(C(F)(F)F)C(F)(F)F)N1CCN(Cc2ccc(-n3cccn3)c(F)c2)CC1 [Example 9az, 1,1,1,3,3,3-hexafluoropropan-2-yl 4-(3-fluoro-4-(1H-pyrazol-1-yl)benzyl)piperazine-1-carboxylate] | 100 to 1000 | > 10000 | 100 to 1000 |  |  | 
19 | Cn1ncc(Br)c1CN1CCN(C(=O)OC(C(F)(F)F)C(F)(F)F)CC1 [Example 10f, 1,1,1,3,3,3-hexafluoropropan-2-yl 4-((4-bromo-1-methyl-1H-pyrazol-5-yl)methyl)piperazine-1-carboxylate] | 100 to 1000 |  |  |  |  | 
20 | O=C(OC(C(F)(F)F)C(F)(F)F)N1CCN(Cc2ccc(Br)cc2N2CCOCC2)CC1 [Example 9r, 1,1,1,3,3,3-hexafluoropropan-2-yl 4-(4-bromo-2-morpholinobenzyl)piperazine-1-carboxylate] | < 100 |  |  |  |  | 

Next, values leading:

Row | IC50 (MAGL; competitive ABPP (Table 7)) [nM] | IC50 (FAAH; competitive ABPP (Table 7)) [nM] | IC50 (ABHD6; competitive ABPP (Table 7)) [nM] | IC50 (MAGL; competitive ABPP) [nM] | IC50 (FAAH; competitive ABPP) [nM] | IC50 (ABHD6; competitive ABPP) [nM] | SMILES
21 | 100 to 1000 | > 10000 | 100 to 1000 |  |  |  | O=C(OC(C(F)(F)F)C(F)(F)F)N1CCN(Cc2ccc(Cl)cc2-n2cccn2)CC1 [Example 9ae, 1,1,1,3,3,3-hexafluoropropan-2-yl 4-(4-chloro-2-(1H-pyrazol-1-yl)benzyl)piperazine-1-carboxylate]
22 | < 100 | > 250 |  |  |  |  | O=C(OC(C(F)(F)F)C(F)(F)F)N1CCN(Cc2ccccc2N2CCOCC2)CC1 [Example 9y, 1,1,1,3,3,3-hexafluoropropan-2-yl 4-(2-morpholinobenzyl)piperazine-1-carboxylate]
23 |  |  |  | > 1000 | > 10000 | > 1000 | O=C(OC(C(F)(F)F)C(F)(F)F)N1CCN(C(c2ccc(-c3ccccc3)cc2)c2ccc3c(c2)OCO3)CC1 (stereo not drawn) [Example 2g]
24 |  |  |  | > 1000 | > 10000 | > 1000 | O=C(O)C(OC(=O)N1CCN(C(c2ccc(Cl)cc2)c2ccc(Cl)cc2)CC1)C(F)(F)F (stereo not drawn) [Example 6i, 2-((4-(bis(4-chlorophenyl)methyl)piperazine-1-carbonyl)oxy)-3,3,3-trifluoropropanoic acid]
25 | 100 to 1000 |  |  |  |  |  | O=C(OC(C(F)(F)F)C(F)(F)F)N1CCN(Cc2cc(-c3ccccc3)on2)CC1 [Example 10b, 1,1,1,3,3,3-hexafluoropropan-2-yl 4-((5-phenylisoxazol-3-yl)methyl)piperazine-1-carboxylate]
26 | > 1000 |  |  |  |  |  | O=C(OC(C(F)(F)F)C(F)(F)F)N1CCN(Cc2ccc(-c3ccccc3)cc2N2CCOCC2)CC1 [Example 11f, 1,1,1,3,3,3-hexafluoropropan-2-yl 4-((3-morpholino-[1,1′-biphenyl]-4-yl)methyl)piperazine-1-carboxylate]
27 | 100 to 1000 | > 10000 | 100 to 1000 |  |  |  | CC(C)n1cc(CN2CCN(C(=O)OC(C(F)(F)F)C(F)(F)F)CC2)c(-c2ccccc2)n1 [Example 10h, 1,1,1,3,3,3-hexafluoropropan-2-yl 4-[[3-phenyl-1-(propan-2-yl)-1H-pyrazol-4-yl]methyl]piperazine-1-carboxylate]
28 | 100 to 1000 | > 10000 | > 1000 |  |  |  | CN(C)C(=O)c1cc(-c2ccccc2)ccc1CN1CCN(C(=O)OC(C(F)(F)F)C(F)(F)F)CC1 [Example 11x, 1,1,1,3,3,3-hexafluoropropan-2-yl 4-[[2-(dimethylcarbamoyl)-4-phenylphenyl]methyl]piperazine-1-carboxylate]
29 | < 100 | > 10000 | > 1000 |  |  |  | O=C(OC(C(F)(F)F)C(F)(F)F)N1CCN(Cc2ccc(-c3ccccc3)cc2F)CC1 [Example 11p, 1,1,1,3,3,3-hexafluoropropan-2-yl 4-[(2-fluoro-4-phenylphenyl)methyl]piperazine-1-carboxylate]
30 |  |  |  |  | > 10000 | > 1000 | Cc1cc(Cl)ccc1C(c1ccc(Cl)cc1C)N1CCN(C(=O)OC(C(F)(F)F)C(F)(F)F)CC1 [Example 2j, 1,1,1,3,3,3-hexafluoropropan-2-yl 4-(bis(4-chloro-2-methylphenyl)methyl)piperazine-1-carboxylate]
31 | < 100 | > 10000 | > 1000 |  |  |  | COc1cc(-c2ccccc2)ccc1CN1CCN(C(=O)OC(C(F)(F)F)C(F)(F)F)CC1 [Example 11j, 1,1,1,3,3,3-hexafluoropropan-2-yl 4-[(2-methoxy-4-phenylphenyl)methyl]piperazine-1-carboxylate]
